Results on 32 molecules are retold here after ChEMBL document CHEMBL3272239, “Psychotropic agents. 3. 4-(4-Substituted piperidinyl)-1-(4-fluorophenyl)-1-butanones with potent neuroleptic activity” (J Med Chem, 1978).

Data set [1] deals with Mus musculus. Kind of data set: Neuroleptic activity in po dosed STD-ddY mouse assessed as inhibition of spontaneous motor activity by measuring number of revolution of cage for 5 mins. The class given is functional.
Data set [2] concerns Mus musculus. Kind of data set: Neuroleptic activity in po dosed STD-ddY mouse assessed as protection against methamphetamine-induced toxicity administered 1 hr before methamphetamine challenge measured after 24 hrs. The class given is functional.
The subject of data set [3] is Rattus norvegicus. Description: Toxicity in po dosed albino Wistar rat assessed as induction of catalepsy after 8 hrs. The class given is organism-based. As to conditions: in vivo.
Data set [4] concerns Rattus norvegicus. Kind of data set: Ratio of ED50 for po dosed albino Wistar rat assessed as induction of catalepsy to ED50 for apomorphine-induced stereotyped behavior in po dosed albino Wistar rat.
Data set [5] deals with Rattus norvegicus. Kind of data set: Inhibition of methamphetamine-induced stereotyped behavior in po dosed albino Wistar rat administered 2 hrs before methamphetamine challenge measured up to 3 hrs. The class given is functional.
The subject of data set [6] is Rattus norvegicus. Kind of data set: Inhibition of apomorphine-induced stereotyped behavior in po dosed albino Wistar rat administered 2 hrs before apomorphine challenge measured after 20 mins. The class given is functional.
In data set [7] the test system is Rattus norvegicus. Kind of data set: Ratio of ED50 for po dosed albino Wistar rat assessed as induction of catalepsy to ED50 for methamphetamine-induced stereotyped behavior in po dosed albino Wistar rat.
Data set [8] in a line: Acute toxicity in po dosed STD-ddY mouse assessed as mortality up to 7 days. The class given is organism-based. To be noted: in vivo.
For data set [9], the system named is Rattus norvegicus. Description: Ratio of benperidol ED50 to compound ED50 for methamphetamine-induced stereotyped behavior in po dosed albino Wistar rat. The class given is functional.
Data set [10] deals with Rattus norvegicus. Description: Ratio of benperidol ED50 to compound ED50 for apomorphine-induced stereotyped behavior in po dosed albino Wistar rat. The class given is functional.
For data set [11], the system named is Rattus norvegicus. Description: Ratio of haloperidol ED50 to compound ED50 for methamphetamine-induced stereotyped behavior in po dosed albino Wistar rat. The class given is functional.
Data set [12] deals with Rattus norvegicus. Description: Ratio of haloperidol ED50 to compound ED50 for apomorphine-induced stereotyped behavior in po dosed albino Wistar rat. The class given is functional.

On to `O=C(CCCN1CCC(n2cnc3ccccc32)CC1)c1ccc(F)cc1`, for which the ED50 – broadly, the dose that gives a 50% effect, or the effect in half of the subjects – in the data set with Mus musculus [1] is 4.7 mg/kg; in the data set on Mus musculus [2], greater than 3 mg/kg.
For the molecule `Cc1nc2ccccc2n1C1CCN(CCCC(=O)c2ccc(F)cc2)CC1`, the median effective dose (ED50) in the data set on Mus musculus [1] came to 0.85 mg/kg; in the data set with Mus musculus [2] it was 0.81 mg/kg.
For the molecule `CCc1nc2ccccc2n1C1CCN(CCCC(=O)c2ccc(F)cc2)CC1.Cl`, the 50% effective dose (ED50) in the data set on Mus musculus [1] was 9.1 mg/kg; in the data set with Mus musculus [2] it was greater than 3 mg/kg.
As for `CCCCc1nc2ccccc2n1C1CCN(CCCC(=O)c2ccc(F)cc2)CC1.Cl`, the 50% effective dose (ED50) in the data set on Mus musculus [1] was 14 mg/kg; with Mus musculus [2] it was greater than 3 mg/kg.
`Cl.O=C(CCCN1CCC(n2c(-c3ccccc3)nc3ccccc32)CC1)c1ccc(F)cc1`: the ED50 was 18 mg/kg in the data set with Mus musculus [1] and greater than 3 mg/kg with Mus musculus [2].
On to `O=C(CCCN1CCC(n2c(C(F)(F)F)nc3ccccc32)CC1)c1ccc(F)cc1`, for which the ED50 in the data set on Mus musculus [1] is greater than 40 mg/kg.
Consider `CSc1nc2ccccc2n1C1CCN(CCCC(=O)c2ccc(F)cc2)CC1`, for which the ED50 in the data set with Rattus norvegicus [3] worked out at 1.1 mg/kg; in the data set on Mus musculus [1], 6.2 mg/kg; with Mus musculus [2] it was 0.68 mg/kg; in the data set with Rattus norvegicus [5] it was 0.2 mg/kg; with Rattus norvegicus [6] it was 0.41 mg/kg. Further, the entries for the “Ratio ED50” value in the data set with Rattus norvegicus [4] and in the data set on Rattus norvegicus [7] were 2.7 and 5.5, respectively. For the same molecule, in data set [8], the median lethal dose (LD50) (usually the dose expected to kill half of the subjects tested) at 168 h is 930 mg/kg.
On to `CCSc1nc2ccccc2n1C1CCN(CCCC(=O)c2ccc(F)cc2)CC1.Cl`, for which the ED50 is 5 mg/kg with Mus musculus [1] and greater than 3 mg/kg with Mus musculus [2].
Consider `Br.CC(C)Sc1nc2ccccc2n1C1CCN(CCCC(=O)c2ccc(F)cc2)CC1`, for which the ED50 with Mus musculus [1] was 4.4 mg/kg; in the data set on Mus musculus [2], 1.6 mg/kg.
The like results for `O=C(CCCN1CCC(n2c(SCCO)nc3ccccc32)CC1)c1ccc(F)cc1` were, in that order, 6.9 mg/kg and greater than 3 mg/kg.
The like results for `O=C(CCCSc1nc2ccccc2n1C1CCN(CCCC(=O)c2ccc(F)cc2)CC1)c1ccc(F)cc1` were, in that order, 14 mg/kg and greater than 3 mg/kg.
Regarding `O=C(CCCN1CCC(n2c(SCC(=O)c3ccc(Cl)cc3)nc3ccccc32)CC1)c1ccc(F)cc1`, the ED50 with Mus musculus [1] amounted to 5 mg/kg; in the data set with Mus musculus [2], 1.6 mg/kg.
With `O=C(CCCN1CCC(n2c(SCc3ccccc3)nc3ccccc32)CC1)c1ccc(F)cc1`, the ED50 in the data set on Mus musculus [1] turned out to be 1.3 mg/kg; with Mus musculus [2], 0.76 mg/kg.
The like results for `C#CCSc1nc2ccccc2n1C1CCN(CCCC(=O)c2ccc(F)cc2)CC1.Cl` were, in that order, 1.2 mg/kg and 0.74 mg/kg.
As for `Br.CCOC(=O)CSc1nc2ccccc2n1C1CCN(CCCC(=O)c2ccc(F)cc2)CC1`, the 50% effective dose (ED50) in the data set with Mus musculus [1] is greater than 40 mg/kg.
Still for that read-out and setting: as for `O=C(CCCN1CCC(n2c(Sc3ccccc3[N+](=O)[O-])nc3ccccc32)CC1)c1ccc(F)cc1`, the figure is 11 mg/kg.
Take `CCOC(=O)Sc1nc2ccccc2n1C1CCN(CCCC(=O)c2ccc(F)cc2)CC1`: the median effective dose (ED50) in the data set on Mus musculus [1] came to 0.36 mg/kg; with Mus musculus [2], 0.65 mg/kg.
As for `CCCCCCC(=O)Sc1nc2ccccc2n1C1CCN(CCCC(=O)c2ccc(F)cc2)CC1.Cl`, the 50% effective dose (ED50) with Mus musculus [1] is 1 mg/kg; in the data set with Mus musculus [2] it was 1.1 mg/kg.
`Cl.O=C(CCCN1CCC(n2c(SC(=O)c3ccc(Cl)cc3)nc3ccccc32)CC1)c1ccc(F)cc1`: the ED50 in the data set with Mus musculus [1] is 0.96 mg/kg; in the data set with Mus musculus [2] it was 0.83 mg/kg.
Regarding `Cl.Cn1c(=S)n(C2CCN(CCCC(=O)c3ccc(F)cc3)CC2)c2ccccc21`, the ED50 in the data set with Mus musculus [1] turned out to be 0.54 mg/kg.
For the molecule `Br.C=CCn1c(=S)n(C2CCN(CCCC(=O)c3ccc(F)cc3)CC2)c2ccccc21`, in the data set with Mus musculus [1], the 50% effective dose (ED50) turned out to be 0.87 mg/kg.
Consider `O=C(CCCN1CCC(n2nnc3ccccc32)CC1)c1ccc(F)cc1`, for which the ED50 in the data set on Mus musculus [1] came out at 33 mg/kg.
As for `Cc1nc2ccccc2n(C2CCN(CCCC(=O)c3ccc(F)cc3)CC2)c1=O`, the values for the 50% effective dose (ED50) with Mus musculus [1] and in the data set on Mus musculus [2] were 14.1 mg/kg and greater than 3 mg/kg, respectively.
Consider `CC(=O)O.O=C(CCCN1CCC(n2c(=O)c(O)nc3ccccc32)CC1)c1ccc(F)cc1`, for which the values for the ED50 with Mus musculus [1] and in the data set with Mus musculus [2] were greater than 40 mg/kg and greater than 3 mg/kg, respectively.
With `Cc1nc2ccccc2n1C1CCN(CCCC(c2ccc(F)cc2)c2ccc(F)cc2)CC1`, the ED50 is 40 mg/kg in the data set with Mus musculus [1] and greater than 3 mg/kg in the data set with Mus musculus [2].
The like results for `Fc1ccc(C(CCCN2CCC(n3c(=S)[nH]c4ccccc43)CC2)c2ccc(F)cc2)cc1` were, in that order, 20 mg/kg and 1 mg/kg.
The like results for `CSc1nc2ccccc2n1C1CCN(CCCC(c2ccc(F)cc2)c2ccc(F)cc2)CC1` were, in that order, 13 mg/kg and 2.4 mg/kg.
`OCCSc1nc2ccccc2n1C1CCN(CCCC(c2ccc(F)cc2)c2ccc(F)cc2)CC1`: the median effective dose (ED50) in the data set on Mus musculus [1] is 40 mg/kg; with Mus musculus [2] it was greater than 3 mg/kg.
For the molecule `O=C(CCCN1CCC(n2c(O)nc3ccccc32)CC1)c1ccc(F)cc1` [BENPERIDOL], the 50% effective dose (ED50) in the data set on Rattus norvegicus [3] is 0.92 mg/kg; in the data set with Mus musculus [1] it was 0.56 mg/kg; in the data set with Mus musculus [2], 0.63 mg/kg; in the data set on Rattus norvegicus [5], 0.44 mg/kg; in the data set on Rattus norvegicus [6], 0.62 mg/kg. In addition, the “Ratio ED50” value came out at 1.5 in the data set on Rattus norvegicus [4] and 2.1 with Rattus norvegicus [7].
For the molecule `O=C(CCCN1CCC(O)(c2ccc(Cl)cc2)CC1)c1ccc(F)cc1` [HALOPERIDOL], the median effective dose (ED50) turned out to be 0.88 mg/kg in the data set with Rattus norvegicus [3]; 0.8 mg/kg with Mus musculus [1]; 0.32 mg/kg in the data set on Mus musculus [2]; 0.5 mg/kg in the data set on Rattus norvegicus [5]; 0.85 mg/kg with Rattus norvegicus [6]. The “Ratio ED50” value with Rattus norvegicus [4] is given as 1; with Rattus norvegicus [7] it was 1.8. In addition, the LD50 at 168 h in data set [8] turned out to be 240 mg/kg.
For the molecule `O=c1[nH]c2ccccc2n1C1CCN(CCCC(c2ccc(F)cc2)c2ccc(F)cc2)CC1` [PIMOZIDE], the ED50 amounted to 7.4 mg/kg in the data set on Mus musculus [1] and 1.1 mg/kg in the data set with Mus musculus [2].
On to `O=C(CCCN1CCC(n2c(=S)[nH]c3ccccc32)CC1)c1ccc(F)cc1` [TIMIPERONE], for which the “Ratio ED50” value in the data set on Rattus norvegicus [9] is listed as 8.1; in the data set with Rattus norvegicus [4] it was 4.5; in the data set on Rattus norvegicus [10] it was 6.5; with Rattus norvegicus [7], 6.1; in the data set on Rattus norvegicus [11], 9.3; in the data set with Rattus norvegicus [12], 8.9. Moreover, the ED50 in the data set on Rattus norvegicus [3] was found to be 0.33 mg/kg; in the data set with Mus musculus [1], 0.6 mg/kg; with Mus musculus [2], 0.55 mg/kg; in the data set on Rattus norvegicus [5] it was 0.054 mg/kg; in the data set on Rattus norvegicus [6], 0.095 mg/kg. The 50% lethal dose (LD50) at 168 h in [8] was found to be 500 mg/kg.
